The source of these data is patent US20200316083A1, “ANTIBACTERIAL COMPOSITIONS” (WOCKHARDT LIMITED, priority 2016, published 2020).

Common to all, as to type: cell-based
For assay [1], the system named is E. coli 7MP producing Class A and Class C beta-lactamase enzymes. Put plainly: Time kill study against E. coli 7MP. The following applies: for Effect on bacterial count (in words): alone or in combination. As for the experimental part: (§1) In general, the antibacterial activity of compositions according to invention was studied by performing time kill studies. In a typical time kill study, the freshly grown cultures were diluted to the required cell density (initial starting inoculum) in cation adjusted Muller Hinton broth medium (BD, USA). The antibacterial agents (either alone or in combination) at the required concentrations were added into the culture-containing medium. The samples were incubated under shaking condition (120 rpm) at 37° C. Enumeration of viable bacterial count was done every 2 hour by diluting in normal saline and plating on to the Tryptic Soya Agar plates (BD, USA). The plates were incubated for 24 hours to arrive at a viable bacterial count. The results are expressed in terms of log10 CFU/ml. In general, the decrease of 1 log10 CFU/ml corresponds to 90% killing of bacteria. Similarly, 2 log10 CFU/ml reductions indicates to 99% killing of bacteria and 3 log10 CFU/ml reductions is equal to 99.9% killing of bacteria.

The subject of assay [2] is A. baumanni 13301 producing Carbapenem hydrolysing beta-lactamase enzymes. Put plainly: Time kill study against A. baumanni 13301. The following applies: for Bacterial count (Log10 CFU/ml) 0 hours / Change in Log10 CFU/ml over 0 hour count after 24 hours / Bacterial count (Log10 CFU/ml) 2 hours / Bacterial count (Log10 CFU/ml) 4 hours / Bacterial count (Log10 CFU/ml) 6 hours / Bacterial count (Log10 CFU/ml) 8 hours / Bacterial count (Log10 CFU/ml) 24 hours: 4 mcg/ml alone; for Effect on bacterial count (in words): summary of Table 3, alone or in combination. As for the experimental part:
as §1

For assay [3], the system named is K. pneumoniae B-88 producing metallo beta-lactamase enzymes. Put plainly: Time kill study against K. pneumoniae B-88. As to conditions: for Effect on bacterial count (in words): summary of Table 1, alone or in combination. As for the experimental part:
as §1

[4] abbreviates: summary of Table 5, throughout the duration of the study.

Turning to `O=C(O)[C@H]1/C(=C/CO)O[C@@H]2CC(=O)N21` [Clavulanic acid, reference compound], in assay [1] (Table 5, 4 mcg/ml alone), the “Change in Log10 CFU/ml over 0 hour count after 8 hours” value turned out to be 2.28 Log10 CFU/ml, the “Bacterial count (Log10 CFU/ml) 2 hours” value came to 7.90 Log10 CFU/ml, the “Bacterial count (Log10 CFU/ml) 4 hours” value was 9.23 Log10 CFU/ml and the “Bacterial count (Log10 CFU/ml) 6 hours” value turned out to be 9.30 Log10 CFU/ml. Further, the “Bacterial count (Log10 CFU/ml) 8 hours” value in assay [1] (Table 5, 4 mcg/ml alone) is listed as 9.36 Log10 CFU/ml. Further, the “Effect on bacterial count (in words)” value in assay [1] (setting [4]) was “did not reduce the bacterial count”.

As to `N#C[C@@H]1CC[C@@H]2CN1C(=O)N2OS(=O)(=O)O` [Compound (B)], in assay [2], the “Bacterial count (Log10 CFU/ml) 0 hours” value turned out to be 6.88 Log10 CFU/ml, the “Change in Log10 CFU/ml over 0 hour count after 24 hours” value was determined as 2.16 Log10 CFU/ml, the “Bacterial count (Log10 CFU/ml) 2 hours” value was 8.04 Log10 CFU/ml and the “Bacterial count (Log10 CFU/ml) 4 hours” value is on record as 8.74 Log10 CFU/ml. Besides, in assay [2], the “Bacterial count (Log10 CFU/ml) 6 hours” value is 8.90 Log10 CFU/ml, the “Bacterial count (Log10 CFU/ml) 8 hours” value came out at 9.20 Log10 CFU/ml, the “Bacterial count (Log10 CFU/ml) 24 hours” value turned out to be 9.04 Log10 CFU/ml and the “Effect on bacterial count (in words)” value is recorded as “could not reduce the bacterial count”. In assay [1] (Table 2, 4 mcg/ml alone), the “Change in Log10 CFU/ml over 0 hour count after 24 hours” value worked out at 2.28 Log10 CFU/ml, the “Bacterial count (Log10 CFU/ml) 2 hours” value turned out to be 7.90 Log10 CFU/ml, the “Bacterial count (Log10 CFU/ml) 4 hours” value came to 9.23 Log10 CFU/ml and the “Bacterial count (Log10 CFU/ml) 6 hours” value is 9.30 Log10 CFU/ml. In assay [1] (Table 2, 4 mcg/ml alone), the “Bacterial count (Log10 CFU/ml) 24 hours” value came out at 9.36 Log10 CFU/ml. The “Effect on bacterial count (in words)” value in assay [1] (summary of Table 2) is “could not reduce the bacterial count”. Also, in assay [3] (2 mcg/ml alone), the “Bacterial count (Log10 CFU/ml) 0 hours” value is listed as 7.28 Log10 CFU/ml, the “Change in Log10 CFU/ml over 0 hour count after 24 hours” value came out at 2.12 Log10 CFU/ml, the “Bacterial count (Log10 CFU/ml) 2 hours” value is 8.27 Log10 CFU/ml and the “Bacterial count (Log10 CFU/ml) 4 hours” value was 9.04 Log10 CFU/ml. For the same compound, in assay [3] (2 mcg/ml alone), the “Bacterial count (Log10 CFU/ml) 6 hours” value turned out to be 9.18 Log10 CFU/ml and the “Bacterial count (Log10 CFU/ml) 24 hours” value was found to be 9.40 Log10 CFU/ml. Further, the “Effect on bacterial count (in words)” value in assay [3] is recorded as “could not reduce the bacterial count”.

For the compound `C[C@@H](O)[C@H]1C(=O)N2C(C(=O)O)=C(SCCN=CN)C[C@H]12` [Imipenem, reference compound], in assay [3] (8 mcg/ml alone), the “Bacterial count (Log10 CFU/ml) 0 hours” value is given as 7.28 Log10 CFU/ml, the “Change in Log10 CFU/ml over 0 hour count after 24 hours” value is reported as 2.02 Log10 CFU/ml, the “Bacterial count (Log10 CFU/ml) 2 hours” value is recorded as 8.04 Log10 CFU/ml and the “Bacterial count (Log10 CFU/ml) 4 hours” value is on record as 8.65 Log10 CFU/ml. In assay [3] (8 mcg/ml alone), the “Bacterial count (Log10 CFU/ml) 6 hours” value is listed as 9.20 Log10 CFU/ml and the “Bacterial count (Log10 CFU/ml) 24 hours” value worked out at 9.30 Log10 CFU/ml.

For `C[C@]1(Cn2ccnn2)[C@H](C(=O)O)N2C(=O)C[C@H]2S1(=O)=O` [Tazobactam, reference compound], in assay [1] (Table 5, 4 mcg/ml alone), the “Change in Log10 CFU/ml over 0 hour count after 8 hours” value is given as 2.28 Log10 CFU/ml, the “Bacterial count (Log10 CFU/ml) 2 hours” value came to 7.90 Log10 CFU/ml, the “Bacterial count (Log10 CFU/ml) 4 hours” value came out at 9.23 Log10 CFU/ml and the “Bacterial count (Log10 CFU/ml) 6 hours” value is recorded as 9.30 Log10 CFU/ml. For the same compound, the “Bacterial count (Log10 CFU/ml) 8 hours” value in assay [1] (Table 5, 4 mcg/ml alone) is on record as 9.36 Log10 CFU/ml. Also, the “Effect on bacterial count (in words)” value in assay [1] (setting [4]) is given as “did not reduce the bacterial count”.

For `NCCONC(=O)[C@@H]1CC[C@@H]2CN1C(=O)N2OS(=O)(=O)O` [Compound (E)], in assay [2], the “Bacterial count (Log10 CFU/ml) 0 hours” value was determined as 6.88 Log10 CFU/ml, the “Change in Log10 CFU/ml over 0 hour count after 24 hours” value turned out to be 2.16 Log10 CFU/ml, the “Bacterial count (Log10 CFU/ml) 2 hours” value worked out at 8.04 Log10 CFU/ml and the “Bacterial count (Log10 CFU/ml) 4 hours” value came to 8.74 Log10 CFU/ml. Further, in assay [2], the “Bacterial count (Log10 CFU/ml) 6 hours” value is 8.90 Log10 CFU/ml, the “Bacterial count (Log10 CFU/ml) 8 hours” value came out at 9.20 Log10 CFU/ml, the “Bacterial count (Log10 CFU/ml) 24 hours” value is listed as 9.04 Log10 CFU/ml and the “Effect on bacterial count (in words)” value was “could not reduce the bacterial count”. In assay [1] (Table 2, 2 mcg/ml alone), the “Change in Log10 CFU/ml over 0 hour count after 24 hours” value is on record as 2.22 Log10 CFU/ml, the “Bacterial count (Log10 CFU/ml) 2 hours” value is 8.02 Log10 CFU/ml, the “Bacterial count (Log10 CFU/ml) 4 hours” value amounted to 9.15 Log10 CFU/ml and the “Bacterial count (Log10 CFU/ml) 6 hours” value amounted to 9.11 Log10 CFU/ml. Also, in assay [1] (Table 2, 2 mcg/ml alone), the “Bacterial count (Log10 CFU/ml) 24 hours” value was determined as 9.30 Log10 CFU/ml. Besides, the “Effect on bacterial count (in words)” value in assay [1] (summary of Table 2) was “could not reduce the bacterial count”. In assay [3] (2 mcg/ml alone), the “Bacterial count (Log10 CFU/ml) 0 hours” value turned out to be 7.28 Log10 CFU/ml, the “Change in Log10 CFU/ml over 0 hour count after 24 hours” value is 1.26 Log10 CFU/ml, the “Bacterial count (Log10 CFU/ml) 2 hours” value was determined as 7.60 Log10 CFU/ml and the “Bacterial count (Log10 CFU/ml) 4 hours” value is recorded as 8.26 Log10 CFU/ml. Moreover, in assay [3] (2 mcg/ml alone), the “Bacterial count (Log10 CFU/ml) 6 hours” value came to 8.18 Log10 CFU/ml and the “Bacterial count (Log10 CFU/ml) 24 hours” value turned out to be 8.54 Log10 CFU/ml. The “Effect on bacterial count (in words)” value in assay [3] was “could not reduce the bacterial count”.

Turning to `O=C(NNC(=O)[C@@H]1CC[C@@H]2CN1C(=O)N2OS(=O)(=O)O)[C@@H]1CCCNC1` [Compound (C)], in assay [2], the “Bacterial count (Log10 CFU/ml) 0 hours” value stood at 6.88 Log10 CFU/ml, the “Change in Log10 CFU/ml over 0 hour count after 24 hours” value is 2.35 Log10 CFU/ml, the “Bacterial count (Log10 CFU/ml) 2 hours” value is recorded as 8.13 Log10 CFU/ml and the “Bacterial count (Log10 CFU/ml) 4 hours” value amounted to 8.85 Log10 CFU/ml. Further, in assay [2], the “Bacterial count (Log10 CFU/ml) 6 hours” value is 9.19 Log10 CFU/ml, the “Bacterial count (Log10 CFU/ml) 8 hours” value was determined as 9.02 Log10 CFU/ml, the “Bacterial count (Log10 CFU/ml) 24 hours” value was determined as 9.23 Log10 CFU/ml and the “Effect on bacterial count (in words)” value is given as “could not reduce the bacterial count”. Further, in assay [1] (Table 2, 2 mcg/ml alone), the “Change in Log10 CFU/ml over 0 hour count after 24 hours” value is −3.54 Log10 CFU/ml, the “Bacterial count (Log10 CFU/ml) 2 hours” value worked out at 6.30 Log10 CFU/ml, the “Bacterial count (Log10 CFU/ml) 4 hours” value amounted to 4.93 Log10 CFU/ml and the “Bacterial count (Log10 CFU/ml) 6 hours” value turned out to be 4.23 Log10 CFU/ml. The “Bacterial count (Log10 CFU/ml) 24 hours” value in assay [1] (Table 2, 2 mcg/ml alone) was determined as 3.54 Log10 CFU/ml. In addition, the “Effect on bacterial count (in words)” value in assay [1] (summary of Table 2) is listed as “could not reduce the bacterial count”. In addition, in assay [3] (2 mcg/ml alone), the “Bacterial count (Log10 CFU/ml) 0 hours” value was found to be 7.28 Log10 CFU/ml, the “Change in Log10 CFU/ml over 0 hour count after 24 hours” value is 1.26 Log10 CFU/ml, the “Bacterial count (Log10 CFU/ml) 2 hours” value is on record as 7.60 Log10 CFU/ml and the “Bacterial count (Log10 CFU/ml) 4 hours” value came to 8.26 Log10 CFU/ml. Also, in assay [3] (2 mcg/ml alone), the “Bacterial count (Log10 CFU/ml) 6 hours” value is recorded as 8.18 Log10 CFU/ml and the “Bacterial count (Log10 CFU/ml) 24 hours” value was 8.54 Log10 CFU/ml. In addition, the “Effect on bacterial count (in words)” value in assay [3] is recorded as “could not reduce the bacterial count”.

With `NC(=O)[C@@H]1CC[C@@H]2CN1C(=O)N2OS(=O)(=O)O` [Avibactam, reference compound], in assay [1] (Table 5, 4 mcg/ml alone), the “Change in Log10 CFU/ml over 0 hour count after 8 hours” value came out at 2.28 Log10 CFU/ml, the “Bacterial count (Log10 CFU/ml) 2 hours” value is 7.90 Log10 CFU/ml, the “Bacterial count (Log10 CFU/ml) 4 hours” value was determined as 9.23 Log10 CFU/ml and the “Bacterial count (Log10 CFU/ml) 6 hours” value worked out at 9.30 Log10 CFU/ml. Also, the “Bacterial count (Log10 CFU/ml) 8 hours” value in assay [1] (Table 5, 4 mcg/ml alone) amounted to 9.36 Log10 CFU/ml. The “Effect on bacterial count (in words)” value in assay [1] (setting [4]) is “did not reduce the bacterial count”.
